{
  "source": "patent US20070250301A1",
  "about": "“Normalizing cell assay data for models” (Cytokinetics, Inc., A Delaware Corporation, priority 2006, published 2007)",
  "origin": "cited, not measured here",
  "key": {"bile flow": {"system": "bile flow", "conditions": "rats; resulting in cholestatic injury"}, "[1]": {"system": "filamentous F actin around canaliculi and tight junctions"}},
  "note": "Numbered stars: 1 amine (or outer) side, 2 acyl side, 3 side chain; on linkers, the order of the positions; unused ones are H or OH. Bridge positions count the residues as written; N and C are the ends. Square brackets hold non-standard residues; d marks the D form. Peptide text beside a SMILES is read from it. Trp(2-yl) = O=C([C@H](Cc1c([*:3])[nH]c2ccccc12)N[*:1])[*:2]; Leu(4R-OH,5-OH) = C[C@](O)(CO)C[C@H](N)C(=O)O; cisHyp = O=C(O)[C@@H]1C[C@H](O)CN1",
  "data": [
    {"smiles": "C=C1[C@@H](C)[C@H]2[C@H](Cc3ccccc3)NC(=O)[C@]23OC(=O)/C=C/[C@H](O)CCC[C@@H](C)C/C=C/[C@H]3[C@@H]1O", "note": "[cytochalasin B]", "values": [
      {"measurement": "effect on bile flow", "setting": "bile flow", "result": "prompt arrest of bile flow"}
    ]},
    {"smiles": "C[C@@H]1NC(=O)[C@H](C[C@@](C)(O)CO)NC(=O)[C@@H]2Cc3c([nH]c4ccccc34)SC[C@H](NC(=O)[C@@H]([C@H](C)O)NC1=O)C(=O)N1C[C@@H](O)C[C@H]1C(=O)N[C@@H](C)C(=O)N2", "note": "[phalloidin] (cyclo(A[dT]C[cisHyp]A[Trp(2-yl)][Leu(4R-OH,5-OH)]); thioether 3-6)", "values": [
      {"measurement": "effect on filamentous F actin", "setting": "[1]", "result": "increase in filamentous F actin"}
    ]}
  ]
}
